Experimental data as given in ChEMBL document CHEMBL1201862, “PubChem BioAssay data set” (2004).
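Method: 48-hour compound exposure of cells in 96-well plates, five concentrations, linear interpolation of endpoints. GI50 = concentration required for 50% inhibition of growth.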 Activity calls are given as the source filed them. No stated cut-off is given here; in the data, active = GI50 up to about 1.1 µM and inactive = higher.

Experiments:
Test in all cases: inhibition of tumour cell growth, NCI panel, 48 h
[1] = tested on: 786-0
[2] = tested on: CAKI-1
[3] = tested on: COLO 205
[4] = tested on: HCT-15
[5] = tested on: HL-60
[6] = tested on: HT-29
[7] = tested on: KM12
[8] = tested on: M14
[9] = tested on: Malme-3M
[10] = tested on: OVCAR-3
[11] = tested on: OVCAR-5
[12] = tested on: RXF 393
[13] = tested on: SF-539
[14] = tested on: SK-MEL-2
[15] = tested on: SN12C
[16] = tested on: SW-620
[17] = tested on: TK-10
[18] = tested on: UACC-257
[19] = tested on: A498

For `C=CCC(OCCOCC)c1cc(OCCOCC)ccc1OC` (stereo not given), the GI50 [1] was > 100 µM (inactive), the GI50 [2] was > 100 µM (inactive) and the GI50 [3] was > 100 µM (inactive). For the same compound, the GI50 [4] was > 100 µM, the GI50 [5] was > 100 µM (inactive) and the GI50 [6] was > 100 µM (inactive). For the same compound, the GI50 [7] was > 100 µM (inactive), the GI50 [8] was > 100 µM (inactive) and the GI50 [9] was > 100 µM (inactive). For the same compound, the GI50 [10] was > 100 µM (inactive), the GI50 [11] was > 100 µM (inactive) and the GI50 [12] was > 100 µM (inactive). For the same compound, the GI50 [13] was > 100 µM (inactive), the GI50 [14] was > 100 µM (inactive) and the GI50 [15] was > 100 µM (inactive). The GI50 [16] was > 100 µM (inactive), the GI50 [17] was > 100 µM (inactive) and the GI50 [18] was > 100 µM (inactive).
`[O-][S+]1c2ccccc2N=C(c2cccc3ccccc23)CC1c1cccc2ccccc12` (stereo not given) was tested, and the GI50 [1] was 24.5 µM (inactive), the GI50 [19] was 21.7 µM (inactive) and the GI50 [2] was 24.8 µM (inactive). The GI50 [3] was 20.9 µM (inactive), the GI50 [4] was 15.1 µM and the GI50 [5] was 10.8 µM (inactive). For the same compound, the GI50 [6] was 25.7 µM (inactive), the GI50 [7] was 15.2 µM (inactive) and the GI50 [8] was 14.5 µM (inactive). For the same compound, the GI50 [9] was 22.9 µM (inactive), the GI50 [10] was 19.1 µM (inactive) and the GI50 [11] was 31.6 µM (inactive). For the same compound, the GI50 [12] was 22.6 µM (inactive), the GI50 [13] was 19.5 µM (inactive) and the GI50 [14] was 17.5 µM (inactive). For the same compound, the GI50 [15] was 16.6 µM (inactive), the GI50 [16] was 17.7 µM (inactive) and the GI50 [17] was 31.2 µM (inactive). The GI50 [18] was 17.1 µM (inactive).
In the case of `O=c1[nH]c(=O)n(C2CC(O)C(CO)O2)cc1C#Cc1cc(F)cc(F)c1` (stereo not given), the GI50 [1] is reported as > 100 µM (inactive), the GI50 [2] is reported as > 100 µM (inactive) and the GI50 [3] is reported as > 100 µM (inactive). For the same compound, the GI50 [4] was > 100 µM, the GI50 [6] was > 100 µM (inactive) and the GI50 [7] was > 100 µM (inactive). The GI50 [8] was > 100 µM (inactive), the GI50 [9] was > 100 µM (inactive) and the GI50 [10] was > 100 µM (inactive). The GI50 [11] was > 100 µM (inactive), the GI50 [13] was > 100 µM (inactive) and the GI50 [14] was > 100 µM (inactive). The GI50 [15] was > 100 µM (inactive), the GI50 [16] was > 100 µM (inactive) and the GI50 [18] was > 100 µM (inactive).
For `COc1ccc2cc1Oc1ccc(cc1)CC1c3cc4c(cc3CCN1C)Oc1c(OC)cc3c(c1O4)C(C2)N(C)CC3` (stereo not given), the GI50 [1] was 7.66 µM (inactive), the GI50 [3] was 1.43 µM (inactive) and the GI50 [4] was 2.42 µM. The GI50 [5] was 1.96 µM (inactive), the GI50 [6] was 1.81 µM (inactive) and the GI50 [7] was 2.11 µM (inactive). The GI50 [8] was 1.64 µM (inactive), the GI50 [10] was 5.81 µM (inactive) and the GI50 [11] was 13.6 µM (inactive). The GI50 [12] was 1.64 µM (inactive), the GI50 [13] was 2.13 µM (inactive) and the GI50 [14] was 2.8 µM (inactive). For the same compound, the GI50 [15] was 1.94 µM (inactive), the GI50 [16] was 1.69 µM (inactive) and the GI50 [17] was 15.6 µM (inactive).
In the case of `O=C(OCc1nc2ccc(Br)cc2c(=O)n1-c1ccccc1)c1ccccc1O`, the GI50 [1] is reported as 74.8 µM (inactive), the GI50 [19] is reported as 58.3 µM (inactive) and the GI50 [2] is reported as 39.8 µM (inactive). The GI50 [3] was > 100 µM (inactive), the GI50 [5] was 36.7 µM (inactive) and the GI50 [6] was 84.9 µM (inactive). For the same compound, the GI50 [7] was > 100 µM (inactive), the GI50 [8] was > 100 µM (inactive) and the GI50 [9] was > 100 µM (inactive). For the same compound, the GI50 [10] was 2.32 µM (inactive), the GI50 [11] was > 100 µM (inactive) and the GI50 [12] was > 100 µM (inactive). The GI50 [13] was > 100 µM (inactive), the GI50 [14] was 90.4 µM (inactive) and the GI50 [15] was > 100 µM (inactive). The GI50 [16] was > 100 µM (inactive), the GI50 [17] was > 100 µM (inactive) and the GI50 [18] was 61.5 µM (inactive).
For `N#Cc1c(-c2ccco2)cc(-c2ccc(NCc3nc4ccccc4[nH]3)cc2)nc1N`, the GI50 [1] was 28.6 µM (inactive), the GI50 [19] was 25 µM (inactive) and the GI50 [2] was 33.8 µM (inactive). The GI50 [3] was 21.6 µM (inactive), the GI50 [4] was 23.6 µM and the GI50 [5] was 20 µM (inactive). The GI50 [6] was 32.6 µM (inactive), the GI50 [7] was 18.7 µM (inactive) and the GI50 [8] was 19.5 µM (inactive). The GI50 [9] was 24.5 µM (inactive), the GI50 [10] was 20.1 µM (inactive) and the GI50 [11] was 32.3 µM (inactive). The GI50 [12] was 16 µM (inactive), the GI50 [13] was 19.5 µM (inactive) and the GI50 [14] was 20.3 µM (inactive). The GI50 [15] was 22.5 µM (inactive), the GI50 [16] was 35.3 µM (inactive) and the GI50 [17] was 26.4 µM (inactive).
For `CCCC(Sc1ccccc1)P(=O)(c1ccccc1)c1ccccc1` (stereo not given), the GI50 [1] was 37.7 µM (inactive), the GI50 [19] was 28.3 µM (inactive) and the GI50 [2] was 42.3 µM (inactive). The GI50 [3] was 31.4 µM (inactive), the GI50 [5] was 22.3 µM (inactive) and the GI50 [7] was 38.7 µM (inactive). The GI50 [8] was 35.2 µM (inactive), the GI50 [10] was 41.1 µM (inactive) and the GI50 [12] was 41.8 µM (inactive). The GI50 [13] was 35.1 µM (inactive), the GI50 [15] was 43.5 µM (inactive) and the GI50 [16] was 41.9 µM (inactive). The GI50 [17] was 40 µM (inactive) and the GI50 [18] was 35.1 µM (inactive).
In the case of `COC(=O)c1nc(C(=O)OC)c2c([nH]c3ccccc32)c1C(=O)OC`, the GI50 [1] is reported as > 100 µM (inactive), the GI50 [19] is reported as > 100 µM (inactive) and the GI50 [2] is reported as > 10 µM (inactive). For the same compound, the GI50 [3] was > 100 µM (inactive), the GI50 [4] was 53.5 µM and the GI50 [6] was > 100 µM (inactive). For the same compound, the GI50 [7] was > 100 µM (inactive), the GI50 [8] was > 100 µM (inactive) and the GI50 [9] was > 100 µM (inactive). The GI50 [10] was > 100 µM (inactive), the GI50 [11] was > 100 µM (inactive) and the GI50 [12] was 31.8 µM (inactive). For the same compound, the GI50 [13] was > 100 µM (inactive), the GI50 [14] was > 100 µM (inactive) and the GI50 [15] was > 100 µM (inactive). The GI50 [16] was > 100 µM (inactive), the GI50 [17] was > 100 µM (inactive) and the GI50 [18] was > 100 µM (inactive).
